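Compound exposure: 48 hours, 5 concentrations, 96-well plates. At the TGI there is no net growth.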
Assays:
Experiment in all cases: growth of human tumour cells (NCI), 48 h
786-0 renal = test system: 786-0 renal
A498 renal = test system: A498 renal
A549 NSCLC = test system: A549 NSCLC
ACHN renal = test system: ACHN renal
BT-549 breast = test system: BT-549 breast
CAKI-1 renal = test system: CAKI-1 renal
CCRF-CEM leukemia = test system: CCRF-CEM leukemia
COLO 205 colon = test system: COLO 205 colon
DU-145 prostate = test system: DU-145 prostate
EKVX NSCLC = test system: EKVX NSCLC
HCC-2998 colon = test system: HCC-2998 colon
HCT-116 colon = test system: HCT-116 colon
HCT-15 colon = test system: HCT-15 colon
HL-60(TB) leukemia = test system: HL-60(TB) leukemia
HOP-62 NSCLC = test system: HOP-62 NSCLC
HOP-92 NSCLC = test system: HOP-92 NSCLC
HS 578T breast = test system: HS 578T breast
HT29 colon = test system: HT29 colon
IGROV1 ovarian = test system: IGROV1 ovarian
K-562 leukemia = test system: K-562 leukemia
KM12 colon = test system: KM12 colon
LOX IMVI melanoma = test system: LOX IMVI melanoma
M14 melanoma = test system: M14 melanoma
MALME-3M melanoma = test system: MALME-3M melanoma
MCF7 breast = test system: MCF7 breast
MDA-MB-231 breast = test system: MDA-MB-231 breast
MDA-MB-435 = test system: MDA-MB-435
MDA-N = test system: MDA-N
MOLT-4 leukemia = test system: MOLT-4 leukemia
NCI-H226 lung = test system: NCI-H226 lung
NCI-H23 lung = test system: NCI-H23 lung
NCI-H460 lung = test system: NCI-H460 lung
NCI-H522 lung = test system: NCI-H522 lung
NCI/ADR-RES ovarian = test system: NCI/ADR-RES ovarian
OVCAR-3 ovarian = test system: OVCAR-3 ovarian
OVCAR-4 ovarian = test system: OVCAR-4 ovarian
OVCAR-5 ovarian = test system: OVCAR-5 ovarian
OVCAR-8 ovarian = test system: OVCAR-8 ovarian
PC-3 prostate = test system: PC-3 prostate
RPMI-8226 leukemia = test system: RPMI-8226 leukemia
RXF 393 renal = test system: RXF 393 renal
SF-268 CNS = test system: SF-268 CNS
SF-295 CNS = test system: SF-295 CNS
SF-539 CNS = test system: SF-539 CNS
SK-MEL-2 melanoma = test system: SK-MEL-2 melanoma
SK-MEL-28 melanoma = test system: SK-MEL-28 melanoma
SK-MEL-5 melanoma = test system: SK-MEL-5 melanoma
SK-OV-3 ovarian = test system: SK-OV-3 ovarian
SN12C renal = test system: SN12C renal
SNB-19 CNS = test system: SNB-19 CNS
SNB-75 CNS = test system: SNB-75 CNS
SR leukemia = test system: SR leukemia
SW-620 colon = test system: SW-620 colon
T-47D breast = test system: T-47D breast
TK-10 renal = test system: TK-10 renal
U251 CNS = test system: U251 CNS
UACC-257 melanoma = test system: UACC-257 melanoma
UACC-62 melanoma = test system: UACC-62 melanoma
UO-31 renal = test system: UO-31 renal

## COC1=C(OC)C23CCc4ccc(OC)c(O)c4C2(CCN3)CC1=O (stereo not given)
786-0 renal
  TGI: > 100 µM
A498 renal
  TGI: > 100 µM
A549 NSCLC
  TGI: > 100 µM
ACHN renal
  TGI: > 100 µM
BT-549 breast
  TGI: > 100 µM
CAKI-1 renal
  TGI: > 100 µM
CCRF-CEM leukemia
  TGI: > 100 µM
COLO 205 colon
  TGI: > 100 µM
DU-145 prostate
  TGI: > 100 µM
EKVX NSCLC
  TGI: > 100 µM
HCC-2998 colon
  TGI: > 100 µM
HCT-116 colon
  TGI: > 100 µM
HCT-15 colon
  TGI: > 100 µM
HL-60(TB) leukemia
  TGI: > 100 µM
HOP-62 NSCLC
  TGI: > 100 µM
HOP-92 NSCLC
  TGI: > 100 µM
HS 578T breast
  TGI: > 100 µM
HT29 colon
  TGI: > 100 µM
IGROV1 ovarian
  TGI: > 100 µM
K-562 leukemia
  TGI: > 100 µM
KM12 colon
  TGI: > 100 µM
LOX IMVI melanoma
  TGI: > 100 µM
M14 melanoma
  TGI: > 100 µM
MALME-3M melanoma
  TGI: > 100 µM
MCF7 breast
  TGI: > 100 µM
MDA-MB-231 breast
  TGI: > 100 µM
MDA-MB-435
  TGI: > 100 µM
MDA-N
  TGI: > 100 µM
MOLT-4 leukemia
  TGI: > 100 µM
NCI-H226 lung
  TGI: > 100 µM
NCI-H23 lung
  TGI: > 100 µM
NCI-H460 lung
  TGI: > 100 µM
NCI-H522 lung
  TGI: > 100 µM
NCI/ADR-RES ovarian
  TGI: > 100 µM
OVCAR-3 ovarian
  TGI: > 100 µM
OVCAR-4 ovarian
  TGI: > 100 µM
OVCAR-5 ovarian
  TGI: > 100 µM
OVCAR-8 ovarian
  TGI: > 100 µM
PC-3 prostate
  TGI: > 100 µM
RPMI-8226 leukemia
  TGI: > 100 µM
RXF 393 renal
  TGI: > 100 µM
SF-268 CNS
  TGI: > 100 µM
SF-295 CNS
  TGI: > 100 µM
SF-539 CNS
  TGI: > 100 µM
SK-MEL-2 melanoma
  TGI: > 100 µM
SK-MEL-28 melanoma
  TGI: > 100 µM
SK-MEL-5 melanoma
  TGI: > 100 µM
SK-OV-3 ovarian
  TGI: > 100 µM
SN12C renal
  TGI: > 100 µM
SNB-19 CNS
  TGI: > 100 µM
SNB-75 CNS
  TGI: > 100 µM
SR leukemia
  TGI: > 100 µM
SW-620 colon
  TGI: > 100 µM
T-47D breast
  TGI: > 100 µM
TK-10 renal
  TGI: > 100 µM
U251 CNS
  TGI: > 100 µM
UACC-257 melanoma
  TGI: > 100 µM
UACC-62 melanoma
  TGI: > 100 µM

## Clc1ccc2oc(CCC3CCCCC3)nc2c1
786-0 renal
  TGI: > 100 µM
A498 renal
  TGI: 82.3 µM
A549 NSCLC
  TGI: > 100 µM
ACHN renal
  TGI: > 100 µM
BT-549 breast
  TGI: > 100 µM
CAKI-1 renal
  TGI: 77.7 µM
CCRF-CEM leukemia
  TGI: 70.8 µM
COLO 205 colon
  TGI: 50.2 µM
DU-145 prostate
  TGI: > 100 µM
EKVX NSCLC
  TGI: 82.9 µM
HCC-2998 colon
  TGI: 48.3 µM
HCT-116 colon
  TGI: > 100 µM
HCT-15 colon
  TGI: 69.2 µM
HL-60(TB) leukemia
  TGI: 42.6 µM
HOP-62 NSCLC
  TGI: 72.8 µM
HOP-92 NSCLC
  TGI: 84.4 µM
HS 578T breast
  TGI: > 100 µM
HT29 colon
  TGI: 83.8 µM
K-562 leukemia
  TGI: > 100 µM
KM12 colon
  TGI: 70.7 µM
LOX IMVI melanoma
  TGI: 25.2 µM
M14 melanoma
  TGI: > 100 µM
MALME-3M melanoma
  TGI: > 100 µM
MCF7 breast
  TGI: 51.3 µM
MDA-MB-231 breast
  TGI: > 100 µM
MDA-MB-435
  TGI: 94.4 µM
MDA-N
  TGI: > 100 µM
MOLT-4 leukemia
  TGI: 60.7 µM
NCI-H226 lung
  TGI: 57.1 µM
NCI-H23 lung
  TGI: 98.5 µM
NCI-H460 lung
  TGI: 59.6 µM
NCI-H522 lung
  TGI: 61.2 µM
NCI/ADR-RES ovarian
  TGI: > 100 µM
OVCAR-3 ovarian
  TGI: 36.1 µM
OVCAR-4 ovarian
  TGI: > 100 µM
OVCAR-5 ovarian
  TGI: > 100 µM
OVCAR-8 ovarian
  TGI: > 100 µM
PC-3 prostate
  TGI: > 100 µM
RPMI-8226 leukemia
  TGI: > 100 µM
RXF 393 renal
  TGI: 45.1 µM
SF-268 CNS
  TGI: > 100 µM
SF-295 CNS
  TGI: 56.2 µM
SF-539 CNS
  TGI: > 100 µM
SK-MEL-2 melanoma
  TGI: 39.1 µM
SK-MEL-28 melanoma
  TGI: > 100 µM
SK-MEL-5 melanoma
  TGI: 35 µM
SK-OV-3 ovarian
  TGI: 62.3 µM
SN12C renal
  TGI: 48.6 µM
SNB-19 CNS
  TGI: > 100 µM
SNB-75 CNS
  TGI: 58.1 µM
SR leukemia
  TGI: 61.5 µM
SW-620 colon
  TGI: > 100 µM
T-47D breast
  TGI: 81.7 µM
TK-10 renal
  TGI: > 100 µM
U251 CNS
  TGI: 43.2 µM
UACC-257 melanoma
  TGI: 79.3 µM
UACC-62 melanoma
  TGI: > 100 µM
UO-31 renal
  TGI: 81.8 µM

## CC(=NCC(=O)O)c1ccccc1
786-0 renal
  TGI: > 100 µM
A498 renal
  TGI: > 100 µM
A549 NSCLC
  TGI: > 100 µM
ACHN renal
  TGI: > 100 µM
BT-549 breast
  TGI: > 100 µM
CAKI-1 renal
  TGI: > 100 µM
CCRF-CEM leukemia
  TGI: > 100 µM
COLO 205 colon
  TGI: > 100 µM
DU-145 prostate
  TGI: > 100 µM
EKVX NSCLC
  TGI: > 100 µM
HCC-2998 colon
  TGI: > 100 µM
HCT-116 colon
  TGI: > 100 µM
HCT-15 colon
  TGI: > 100 µM
HL-60(TB) leukemia
  TGI: > 100 µM
HOP-62 NSCLC
  TGI: > 100 µM
HOP-92 NSCLC
  TGI: > 100 µM
HS 578T breast
  TGI: > 100 µM
HT29 colon
  TGI: > 100 µM
IGROV1 ovarian
  TGI: > 100 µM
K-562 leukemia
  TGI: > 100 µM
KM12 colon
  TGI: > 100 µM
LOX IMVI melanoma
  TGI: > 100 µM
M14 melanoma
  TGI: > 100 µM
MALME-3M melanoma
  TGI: > 100 µM
MCF7 breast
  TGI: > 100 µM
MDA-MB-231 breast
  TGI: > 100 µM
MDA-MB-435
  TGI: > 100 µM
MDA-N
  TGI: > 100 µM
MOLT-4 leukemia
  TGI: > 100 µM
NCI-H226 lung
  TGI: > 100 µM
NCI-H23 lung
  TGI: > 100 µM
NCI-H460 lung
  TGI: > 100 µM
NCI-H522 lung
  TGI: > 100 µM
NCI/ADR-RES ovarian
  TGI: > 100 µM
OVCAR-3 ovarian
  TGI: > 100 µM
OVCAR-4 ovarian
  TGI: > 100 µM
OVCAR-5 ovarian
  TGI: > 100 µM
OVCAR-8 ovarian
  TGI: > 100 µM
PC-3 prostate
  TGI: > 100 µM
RPMI-8226 leukemia
  TGI: > 100 µM
RXF 393 renal
  TGI: > 100 µM
SF-268 CNS
  TGI: > 100 µM
SF-295 CNS
  TGI: > 100 µM
SF-539 CNS
  TGI: > 100 µM
SK-MEL-2 melanoma
  TGI: > 100 µM
SK-MEL-28 melanoma
  TGI: > 100 µM
SK-MEL-5 melanoma
  TGI: > 100 µM
SK-OV-3 ovarian
  TGI: > 100 µM
SN12C renal
  TGI: > 100 µM
SNB-19 CNS
  TGI: > 100 µM
SNB-75 CNS
  TGI: > 100 µM
SR leukemia
  TGI: > 100 µM
SW-620 colon
  TGI: > 100 µM
T-47D breast
  TGI: > 100 µM
TK-10 renal
  TGI: > 100 µM
U251 CNS
  TGI: > 100 µM
UACC-257 melanoma
  TGI: > 100 µM
UACC-62 melanoma
  TGI: > 100 µM
UO-31 renal
  TGI: > 100 µM
